Measured values as given in patent publication US20050169994A1 (priority 2003, published 2005).
Structures can show the parent of a compound that is named as a salt. Where two headings read alike, the source gives them in different places.

Legend:
[1] = cited from earlier work
[2] = pH 7.1
[3] = pH-solubility profile for carvedilol; conditions: aqueous medium
[4] = R and S isomers, systemic circulation; cited from earlier work
[5] = Solubility in water at 25° C. over time, with pH of filtered solution
Text: Aliquots were taken out at various time-point, filtered through 0.45 μm Acrodisc GHP filter.

For `COc1ccccc1OCCNCC(O)COc1cccc2[nH]c3ccccc3c12` (stereo not drawn) [Carvedilol], which solubility ([1]; above a pH of 9.0) is on record?
Its solubility is less than 1 µg/mL.

What about the saturation solubility ([1]; pH=5, room temperature) of the same compound?
Its saturation solubility is “about 100 μg/mL”.

And the saturation solubility ([1]; pH=7, room temperature)?
The saturation solubility was “about 23 μg/mL”.

And the solubility [2]?
Its solubility is 20 to 30 µg/mL.

What about the solubility thermodynamic [3] of the same compound?
Its solubility thermodynamic is no more than 100 µg/mL.

And the alpha elimination phase [4]?
The alpha elimination phase was “about 1.5 hours”.

Which “solubility in acidic medium” value ([1]; salt generated in situ in acidic medium simulating gastric fluid) does the source give for `COc1ccccc1OCCNCC(O)COc1cccc2[nH]c3ccccc3c12` (stereo not drawn) [hydrochloride salt of carvedilol, carvedilol hydrochloride] here?
Its value is “less soluble”.

With `COc1ccccc1OCCNCC(O)COc1cccc2[nH]c3ccccc3c12` (stereo not drawn) [HBr salt, carvedilol hydrobromide] as the compound, how does the “aqueous solubility compared with free base” value [5] read?
Its value is “much better aqueous solubility than the free base”.

Which “aqueous solubility compared with free base” value ([5]; in words) does the source give for `COc1ccccc1OCCNCC(O)COc1cccc2[nH]c3ccccc3c12.O=P(O)(O)O` (stereo not drawn) [Phosphate salt, Carvedilol dihydrogen phosphate] here?
The value was “much better aqueous solubility than the free base”.
